Where no end group is shown, it is not given here.
Experiments:
[1] = tested on: E. coli; conditions: for MBC E. coli: minimum bactericidal concentration; for MIC E. coli: minimum inhibitory concentration
Experimental: (§1) The antimicrobial activity for gp41w and its derivatives was determined against Gram-negative E. coli and Gram-positive S. aureus strains (Table 1).
(§2) Minimum inhibitory concentrations (MIC) and minimum bactericidal concentrations (MBC) were determined for E. coli and S. aureus as described previously. Hemolytic activity was also determined by using red blood cells from healthy volunteers, as described previously.

[2] = tested on: S. aureus; conditions: for MBC S. aureus: minimum bactericidal concentration; for MIC S. aureus: minimum inhibitory concentration
Experimental: as §1, §2

[3] = tested on: E. coli and S. aureus; assay: Antimicrobial activity, covering both strains; assay type: cell-based; conditions: for antimicrobial activity (in words): at the concentrations tested
Experimental: as §1, §2

[4] = tested on: red blood cells from healthy volunteers; assay: Hemolytic activity on red blood cells; assay type: cell-based, human; conditions: for hemolytic concentration: peptide concentration at which red blood cells were lysed
Experimental: as §2

[5] = Acrylamide quenching of Trp fluorescence (Stern-Volmer constant); assay type: physicochemical; design: unit not given here; conditions: acrylamide titration (aliquots of 4 M acrylamide), 25 °C, three separate trials
Experimental: Acrylamide quenching experiments were performed for the four peptides to examine the accessibility of the Trp fluorophores in the various membrane environments. If a Trp side chain inserts into the hydrophobic core of the bilayer, it becomes less accessible to the effects of the soluble acrylamide quencher. The quenching of Trp fluorescence is directly related to the concentration of quencher, so a titration with the neutral acrylamide allows for the calculation of the Stern–Volmer constant (Ksv), which quantitatively measures the accessibility of the Trp residues in various lipid environments.
Intrinsic tryptophan fluorescence of the peptides was measured on a Cary Eclipse Fluorimeter (Agilent Technologies, Victoria, Australia) equipped with a temperature control unit set at 25 °C. Emission spectra were recorded between 300 and 400 nm with an excitation wavelength of 295 nm. Excitation and emission slits were kept at 5 and 10 nm, respectively, for all the peptides except for gp41w-FKA, which has a single Trp residue, and for which both slit widths were maintained at 10 nm. The concentration of SDS and DPC in the fluorescence samples was 25 mM, while the lipid concentration in the LUV samples was 30 μM. Acrylamide titrations were performed to determine Ksv by adding five aliquots of a 4 M acrylamide solution to the sample and recording an emission spectra using the parameters described above. Ksv was calculated by using the formula F0/F = […], Where F0 is the initial fluorescence and F is the fluorescence intensity after the addition of soluble quencher (Q).

[6] = Calcein leakage from LUVs; conditions: 37 °C, triplicate; for calcein leakage from zwitterionic ePC:ePE LUVs: highest peptide:lipid ratio tested; for calcein leakage from zwitterionic ePC:ePE LUVs (in words): melittin as positive control
Experimental: All four peptides were tested for their ability to induce the release of the self-quenching fluorescent dye, calcein, from calcein-encapsulated LUVs.
Melittin (black), a known lytic peptide from honey-bee venom was used as a positive control. All experiments were carried out in triplicate at 37 °C.
Calcein leakage was performed according to established protocols. Melittin, the principal component of bee venom and a known lytic peptide, was used as a positive control. Calcein leakage was measured for LUVs made from lipid mixtures of ePC:ePG, ePE:ePG or ePC:ePE.

[7] = most potent peptide of Lee et al.; cited from earlier work
Description: Other de novo strategies for generating AMPs have been reported in the literature. For instance, Lee et al. recently published a study wherein they synthesized short peptides (5-11 residues) composed of only three amino acids: Lys, Leu and Trp. Their results support the notion that the antimicrobial activity of a peptide is related to peptide amphipathicity and helicity as well as to the location of the Trp residues.

[8] = Tryptophan emission fluorescence in aqueous buffer; assay type: physicochemical; conditions: 25 °C, excitation 295 nm, a blue-shifted maximum is read as oligomerization in solution
Experimental: Tryptophan emission fluorescence of all the gp41w derivatives was performed to examine the microenvironment surrounding the Trp side chains. It is evident that the behaviour of the gp41w peptide is very different from the other peptides. The wavelength of the maximum emission for gp41w occurs at 342 nm, while the other three peptides have maximum emission wavelengths at ~356 nm. The value of 356 nm is normal for an exposed Trp side chain in aqueous solution. […] A shift towards lower wavelengths is usually interpreted as the Trp residue residing in a more hydrophobic environment, which may be due to the gp41w peptides oligomerizing in solution.
Intrinsic tryptophan fluorescence of the peptides was measured on a Cary Eclipse Fluorimeter (Agilent Technologies, Victoria, Australia) equipped with a temperature control unit set at 25 °C. Emission spectra were recorded between 300 and 400 nm with an excitation wavelength of 295 nm. […] The concentration of SDS and DPC in the fluorescence samples was 25 mM, while the lipid concentration in the LUV samples was 30 μM. […] Ksv was calculated by using the formula F0/F = […], Where F0 is the initial fluorescence and F is the fluorescence intensity after the addition of soluble quencher (Q).

[9] = 4:4:1 CDCl3:methanol-d3:H2O, 1–2 mg in 500 μL; aggregates persisted at higher temperatures
Experimental: Consequently, we chose to use a cosolvent mixture consisting of four parts deuterated chloroform, four parts deuterated methanol and one part water [19–20].
NMR samples were prepared by dissolving 1–2 mg of lyophilized peptide powder in 500 μL of the miscible cosolvent solution, and then the samples were flame sealed in an NMR tube to avoid evaporation of the organic solvents. Two-dimensional NOESY, TOCSY and COSY spectra were collected at 298 K on a Bruker Avance 700 MHz spectrometer. Mixing times in the NOESY and TOCSY experiments were 100 ms and 120 ms, respectively. Spectra were acquired with 4096 × 600 data points in the F1 and F2 dimensions at a spectral width of 8992.806 Hz. Water suppression was achieved by using excitation sculpting [44].

[10] = earlier attempts at an NMR structure; cited from earlier work
Description: The lack of antimicrobial activity may be related to the fact that the gp41w peptide appears to oligomerize in solution. […] In terms of the antimicrobial activity, gp41w oligomers may be too large to pass through the peptidoglycan layer surrounding Gram-positive bacteria. Additionally, they would have to disassociate into monomers before the ...

KFAKKFKWFAKAAFKFFKK-NH2 [gp41w-FKA]
MBC E. coli [1]: 40 to 50 µg/mL | MIC E. coli [1]: 10 to 30 µg/mL | MBC S. aureus [2]: 20 to 30 µg/mL | MIC S. aureus [2]: <10 µg/mL | antimicrobial activity (in words) ([3]; E. coli and S. aureus): significant antimicrobial activity | concentrations of bacteriostatic and bactericidal effects ([3]; range over MIC and MBC of both strains): 10 to 50 µg/mL | hemolytic concentration [4]: 195 µg/mL | Ksv (Stern-Volmer constant) in buffer [5]: 17.9 | calcein leakage from zwitterionic ePC:ePE LUVs [6]: ~ 70%

LKWLLKWLL-NH2
hemolytic activity (in words) [7]: significant hemolytic activity

KWASLWNWFNITNWLWYIK-NH2 [gp41w]
MBC E. coli [1]: >100 µg/mL | MIC E. coli [1]: >100 µg/mL | MBC S. aureus [2]: >100 µg/mL | MIC S. aureus [2]: >100 µg/mL | concentration below which no antimicrobial activity was observed ([3]; E. coli and S. aureus): ≥ 100 µg/mL | antimicrobial activity (in words) ([3]; E. coli and S. aureus): inactive | concentration below which hemolysis was not observed [4]: ≥ 500 µg/mL | hemolysis (in words) ([4]; peptide added to red blood cells): minimal hemolysis | wavelength of the maximum Trp emission in aqueous buffer [8]: 342 nm | Ksv (Stern-Volmer constant) in buffer [5]: 10.3 | calcein leakage from zwitterionic ePC:ePE LUVs (in words) [6]: caused leakage, but not to the same extent | solubility in the cosolvent mixture (in words) [9]: did not readily dissolve | behaviour in aqueous solution or 40% TFE (in words) [10]: peptide aggregation or poor solubility

KWARLWRWFRITRWLWYIK-NH2 [gp41w-4R]
MBC E. coli [1]: >100 µg/mL | MIC E. coli [1]: >100 µg/mL | MBC S. aureus [2]: >100 µg/mL | MIC S. aureus [2]: >100 µg/mL | antimicrobial activity (in words) ([3]; E. coli and S. aureus): inactive | Hemolysis EC50 ([4]; effective concentration for 50% hemolysis, red blood cells from healthy volunteers): 7 to 14 µg/mL | hemolytic concentration [4]: 7 µg/mL | Ksv (Stern-Volmer constant) in buffer [5]: 27.8 | calcein leakage from zwitterionic ePC:ePE LUVs (in words) [6]: significant leakage

KWAKKWKWFAKAAWKWYKK-NH2 [gp41w-KA]
MBC E. coli [1]: >100 µg/mL | MIC E. coli [1]: >100 µg/mL | MBC S. aureus [2]: >100 µg/mL | MIC S. aureus [2]: >100 µg/mL | antimicrobial activity (in words) ([3]; E. coli and S. aureus): inactive | hemolytic concentration [4]: 42 µg/mL | Ksv (Stern-Volmer constant) in buffer [5]: 16.4 | calcein leakage from zwitterionic ePC:ePE LUVs [6]: ~ 70%

— article PMC3458735, “Design of a novel tryptophan-rich membrane-active antimicrobial peptide from the membrane-proximal region of the HIV glycoprotein, gp41” (Beilstein Journal of Organic Chemistry, 2012)
